Data from ChEMBL document CHEMBL5584329, “Development of new dehydrocostuslactone derivatives for treatment of atopic dermatitis via inhibition of the NF-κB signaling pathway” (RSC Med Chem, 2024).
pIC50: −log10 of the molar value. Each block holds one compound with its values, some of them ahead of it.

Columns and labels:
[1] = Cytotoxicity against mouse RAW264.7 cells assessed as inhibition of cell viability at 20 uM by MTT assay relative to control; type: toxicity, cell-based; conditions: read-out: INH
RAW264.7 [2] = test: Inhibition of LPS-induced NO production in mouse RAW264.7 cells at 20 uM preincubated for 2 hrs followed by LPS addition and measured after 24 hrs by Griess assay relative to control; type: functional; conditions: time 26 hrs
[3] = Cytotoxicity against mouse RAW264.7 cells assessed as inhibition of cell viability by MTT assay relative to control; type: toxicity, cell-based
RAW264.7 [4] = test: Inhibition of LPS-induced NO production in mouse RAW264.7 cells preincubated for 2 hrs followed by LPS addition and measured after 24 hrs by Griess assay relative to control; type: functional, cell-based

Structure (SMILES): C=C1CC[C@H]2C(=C)CC[C@H]3C(CN(CCNS(=O)(=O)c4cccc(Cl)c4F)S(=O)(=O)c4cccc(Cl)c4F)C(=O)O[C@@H]3[C@@H]12 (some centres not stated)
cytotoxicity at 20 µM [1]: 1.67%
inhibition at 20 µM (RAW264.7 [2]): 48.1%

Structure (SMILES): C=C1CC[C@H]2C(=C)CC[C@H]3C(CNCCNCc4cc(Br)ccc4O)C(=O)O[C@@H]3[C@@H]12 (some centres not stated)
cytotoxicity at 20 µM [1]: -2.07%
inhibition at 20 µM (RAW264.7 [2]): 23.5%

Structure (SMILES): C=C1CC[C@H]2C(=C)CC[C@H]3C(CNCCNCc4cc(Cl)ccc4O)C(=O)O[C@@H]3[C@@H]12 (some centres not stated)
cytotoxicity at 20 µM [1]: 16.7%
inhibition at 20 µM (RAW264.7 [2]): 34.1%

The next lines start with results.

pIC50 (RAW264.7 [4]): 4.78
Structure (SMILES): C=C1CC[C@H]2C(=C)CC[C@H]3C(CN(CCNS(=O)(=O)c4ccc5ccccc5c4)S(=O)(=O)c4ccc5ccccc5c4)C(=O)O[C@@H]3[C@@H]12 (some centres not stated)
cytotoxicity at 20 µM [1]: 8.58%
pIC50 [3]: < 4.40
inhibition at 20 µM (RAW264.7 [2]): 76.8%

pIC50 (RAW264.7 [4]): 4.82
Structure (SMILES): C=C1CC[C@H]2C(=C)CC[C@H]3C(CN(CCNS(=O)(=O)c4ccc(F)cc4)S(=O)(=O)c4ccc(F)cc4)C(=O)O[C@@H]3[C@@H]12 (some centres not stated)
cytotoxicity at 20 µM [1]: 9.81%
pIC50 [3]: < 4.40
inhibition at 20 µM (RAW264.7 [2]): 75.1%

pIC50 (RAW264.7 [4]): 5.29
Structure (SMILES): C=C1CC[C@H]2C(=C)CC[C@H]3C(CNCCNS(=O)(=O)C4CC4)C(=O)O[C@@H]3[C@@H]12 (some centres not stated)
cytotoxicity at 20 µM [1]: 12.2%
pIC50 [3]: < 4.40
inhibition at 20 µM (RAW264.7 [2]): 85.4%

pIC50 (RAW264.7 [4]): 4.67
Structure (SMILES): C=C1CC[C@H]2C(=C)CC[C@H]3C(=C)C(=O)O[C@@H]3[C@@H]12 [DEHYDROCOSTUSLACTONE]
cytotoxicity at 20 µM [1]: 17.3%
pIC50 [3]: < 4.40
inhibition at 20 µM (RAW264.7 [2]): 40.3%
